Patent US7858738B2, “Synthetic human peptides and pharmaceutical compositions comprising them for the treatment of systemic lupus erythematosus” (Yeda Research and Development Co., Ltd., priority 2001, dated 2010)

Key:
BALB/c-derived LNC = test: In vivo inhibition of proliferation of BALB/c LNC to the human 16/6Id mAb; design: species or system mice
Protocol: Because our aim was to test the inhibitory capacity of the peptides based on the CDR of the human 16/6Id autoantibody, it was of importance to find out whether peptides hCDR1 and hCDR3 are capable of inhibiting the priming to the whole molecule of the human 16/6Id mAb. To this end, BALB/c and SJL mice were primed with the human 16/6Id mAb (2 μg/mouse) in CFA intradermally in the hind footpads. […] Ten days following immunization, the mice were sacrificed and their LNCs were tested in vitro for their ability to proliferate to different concentrations (0.1-10 μg/well) of the human anti-DNA 16/6Id mAb.
The results are presented as maximum % inhibition of the proliferation to the immunizing human 16/6Id mAb of lymph node cells of mice immunized and treated with the peptides hCDR1 and hCDR3 as compared with mice that were immunized with the 16/6Id mAb but were not treated with the peptides.
In another experiment, BALB/c mice were immunized with 1 μg human 16/6Id in CFA, intradermally in the hind footpads, and either were injected with hCDR1 s.c., 300 μg/mouse in PBS, or were not further treated. Ten days later the mice were sacrificed and their LNC were tested for their ability to proliferate in vitro to the human 16/6Id. Thus, popliteal LNCs (0.5×10^6) were incubated in the presence of various concentrations (0.1-10 μg/well) of the human anti-DNA 16/6Id mAb. At the end of 4 days incubation, ^3H-thymidine was added to the cultures for the last 18 hours of incubation. Cells were then harvested and radioactivity counted.

PBL of SLE patients = test: Proliferative response of PBL of SLE patients to the human 16/6Id mAb; format: cell-based; conditions: for inhibition of the proliferative responses of PBL to the human 16/6Id mAb / inhibition of the proliferative responses of PBL to human 16/6Id mAb: PBL of one SLE patient; for inhibition of the proliferative responses of PBL to the human 16/6Id mAb: FIG. 6; for inhibition of the proliferative responses of PBL to human 16/6Id mAb: FIG. 7, reversed murine peptides as controls; for Percent Inhibition of proliferation of PBL: highest positive inhibition, peptide 50 or 100 μg/well; for Percent Inhibition of proliferation of PBL, Mean ± SD: mean over the 19 responder SLE patients (positive inhibitions, above 50%); for responders whose PBL proliferation was inhibited (inhibition above 50% considered positive): of the 19 responder SLE patients tested
Protocol: (§1) Induction and treatment of experimental SLE. In order to induce experimental SLE, BALB/c mice were immunized with 1-2 μg of the human mAb 16/6Id and boosted 3 weeks later. For the prevention of experimental SLE, mice were given hCDR1 or hCDR3 (mCDR1 or revmCDR1 as control peptide in Example 12) intravenously (i.v.) or s.c. concomitant with the immunization, and were injected weekly thereafter for 5 weeks. Treatment of an established disease started three and a half months following disease induction with the 16/6Id, when clinical manifestations were already observed. In Example 12, mice received 10 weekly injections (i.v. or s.c.) of mCDR1 or revmCDR1 at a dose of 100 μg/mouse. Prevention and treatment of SLE-like disease in (NZB×NZW)F1 mice with the hCDR1 or mCDR1 peptide. For prevention of SLE, mice at the age of 2 months, before disease manifestations are observed, were injected s.c. with hCDR1 (or mCDR1 in Example 12, 250 μg/mouse) once a week for 10 weeks. To treat an established disease, mice at the age of 5-7 months were injected with hCDR1 (in Example 12, mCDR1 s.c., 250 μg/mouse) once a week for 10 weeks. Proliferative Responses. PBL were isolated from heparinized venous blood by Ficoll-Hypaque (Pharmacia) density-gradient centrifugation. All assays were performed, in triplicate, in flat-bottomed microtiter plates (Falcon, Becton Dickinson, Oxmard, Calif., USA) in which 2×10^5 PBL were cultured in enriched RPMI-1640 as described (Dayan et al., 2000). The PBL were exposed to various concentrations (0.1-40 μg/well) of the human anti-DNA 16/6Id mAb with and without the addition of the various CDR-based peptides at a concentration of at least 10-fold excess over that of the 16/6Id. Phytohemagglutinin (PHA; 2 μg/well) was used as a control for culture conditions at each experiment. The cultures were incubated in 7.5% CO2 at 37° C. for 6 days. Eighteen hours before the cells were harvested, [^3H]-thymidine (0.5μ Ci of 5 Ci/mmol) (Nuclear Research Center, Negev, Israel) was added to all cultures. Results are expressed as the mean thymidine incorporation in counts per minute (CPM) of triplicate culture±SD, or as stimulation index (S.I.; the ratio of mean CPM at the optimal concentration of the human 16/6Id to the mean CPM in the presence of medium alone). A S.I.≧2 was considered a positive response (Dayan et al., 2000). Inhibition (the ratio of mean CPM in the presence of the 16/6Id and various CDR-based peptides to the mean CPM with the 16/6Id without the CDR-based peptide) above 50% was considered positive. Induction of Cytokine Production. Mice that were immunized with the human 16/6Id mAb and either treated or not with the CDR-based peptide, were killed at different periods during or after treatment with the peptide. Splenocytes and lymph node cells (LNC) were harvested and incubated (5×10^6/ml) in the presence of the 16/6Id. Supernatants were collected after 48 and 72 h. Assessment of Cytokines in the Supernatants. Supernatants were collected 48 hours following the initiation of the cultures and stored at −70° C. Measurements of IL-2, IL-10, IFN-γ, and TNF-α were performed by ELISA by using the relevant standards, capture and detecting Abs (Pharmingen) according to the manufacturer's instructions. TGF-β was determined by an ELISA. Briefly, plates were coated with the recombinant human TGF-β1 sRIII/Fc chimera (R & D Systems Inc., Minneapolis, Minn., USA), and the second Ab used was the biotinylated anti-human TGF-β1 antibody (R & D Systems Inc.). The substrate solution used was TMB color Reagent (Helix Diagnostics, West Sacramento, Calif.), and enzyme activity was evaluated by using 570- and 630-nm filters. Detection of SLE-Associated Clinical and Pathological Manifestations. Proteinuria was measured semiquantitatively by using Combistix kit (Ames Division, Bayer Diagnostics, Newbury, U.K.). White blood cells (WBC, for leukopenia) were counted after a 10-fold dilution of heparinized blood in distilled water containing 1% acetic acid (vol/vol). […]

MMP-9 = MMP-9 activity in sera of (NZB×NZW)F1 mice (gel zymography); format: in vivo; conditions: 300 μg s.c. once a week from age 7 months; sera after 5 injections; FIG. 23
Protocol: as §1, with “A S.I.≧2 was considered a positive response (Dayan et al., 2000). Inhibition (the ratio of mean CPM in the presence of the 16/6Id and various CDR-based peptides to the mean CPM with the 16/6Id without the CDR-based peptide) above 50% was considered positive. Induction of Cytokine Production. Mice that were immunized with the human 16/6Id mAb and either treated or not with the CDR-based peptide, were killed at different periods during or after treatment with the peptide. Splenocytes and lymph node cells (LNC) were harvested and incubated (5×10^6/ml) in the presence of the 16/6Id. Supernatants were collected after 48 and 72 h. Assessment of Cytokines in the Supernatants. Supernatants were collected 48 hours following the initiation of the cultures and stored at −70° C. Measurements of IL-2, IL-10, IFN-γ, and TNF-α were performed by ELISA by using the relevant standards, capture and detecting Abs (Pharmingen) according to the manufacturer's instructions.” left out, “Briefly, plates were coated with the recombinant human TGF-β1 sRIII/Fc chimera (R & D Systems Inc., Minneapolis, Minn., USA), and the second Ab used was the biotinylated anti-human TGF-β1 antibody (R & D Systems Inc.).” left out, “Detection of SLE-Associated Clinical and Pathological Manifestations.” left out

Row | Sequence | inhibition of the proliferative responses of PBL to the human 16/6Id mAb (PBL of SLE patients) | inhibition of the proliferative responses of PBL to human 16/6Id mAb (PBL of SLE patients) | Percent Inhibition of proliferation of PBL (PBL of SLE patients; SLE patient 1) [%] | Percent Inhibition of proliferation of PBL (PBL of SLE patients; SLE patient 2 (M. D.)) [%] | Percent Inhibition of proliferation of PBL (PBL of SLE patients; SLE patient 3) [%] | Percent Inhibition of proliferation of PBL (PBL of SLE patients; SLE patient 4) [%] | Percent Inhibition of proliferation of PBL (PBL of SLE patients; SLE patient 5) [%] | Percent Inhibition of proliferation of PBL (PBL of SLE patients; SLE patient 6) [%] | Percent Inhibition of proliferation of PBL (PBL of SLE patients; SLE patient 7) [%] | Percent Inhibition of proliferation of PBL (PBL of SLE patients; SLE patient 8 (S. D.)) [%] | Percent Inhibition of proliferation of PBL (PBL of SLE patients; SLE patient 9) [%] | Percent Inhibition of proliferation of PBL (PBL of SLE patients; SLE patient 10) [%] | Percent Inhibition of proliferation of PBL (PBL of SLE patients; SLE patient 11) [%] | Percent Inhibition of proliferation of PBL (PBL of SLE patients; SLE patient 12) [%] | Percent Inhibition of proliferation of PBL (PBL of SLE patients; SLE patient 13) [%] | Percent Inhibition of proliferation of PBL (PBL of SLE patients; SLE patient 14) [%] | Percent Inhibition of proliferation of PBL (PBL of SLE patients; SLE patient 15) [%] | Percent Inhibition of proliferation of PBL (PBL of SLE patients; SLE patient 16) [%] | Percent Inhibition of proliferation of PBL (PBL of SLE patients; SLE patient 17) [%] | Percent Inhibition of proliferation of PBL (PBL of SLE patients; SLE patient 18) [%] | other results
1 | GYYWSWIRQPPGKGEEWIG (Human) [hCDR1, 19-mer peptide based on the CDR1 of the heavy chain of the human 16/6Id mAb] | inhibited efficiently | did inhibit efficiently | 62 | 70 | 69 | <50 | 88.5 | 80 | 76 | 58 | 69.5 | 68.2 | <50 | 82 | 63 | 56 | 63 | <50 | 70.5 | 51.5 | % inhibition of proliferation (BALB/c-derived LNC; 50 μg/mouse s.c. in PBS, 16/6Id mAb 0.1 μg/well): 98%; % inhibition of proliferation (BALB/c-derived LNC; 50 μg/mouse s.c. in PBS, 16/6Id mAb 5 μg/well): 73%; % inhibition of proliferation (BALB/c-derived LNC; 50 μg/mouse s.c. in PBS, 16/6Id mAb 10 μg/well): 64%; % inhibition of proliferation (BALB/c-derived LNC; 300 μg/mouse s.c. in PBS, 16/6Id mAb 0.1 μg/well): 47%; % inhibition of proliferation (BALB/c-derived LNC; 300 μg/mouse s.c. in PBS, 16/6Id mAb 1 μg/well): 66%; % inhibition of proliferation (BALB/c-derived LNC; 300 μg/mouse s.c. in PBS, 16/6Id mAb 5 μg/well): 76%; % inhibition of proliferation (BALB/c-derived LNC; 300 μg/mouse s.c. in PBS, 16/6Id mAb 10 μg/well): 62%; % Inhibition of the proliferation of BALB/c-derived LNC to the human 16/6Id mAb (BALB/c-derived LNC; maximum % inhibition, 200 μg/mouse s.c. in PBS concomitant with priming): 88%; Percent Inhibition of proliferation of PBL (PBL of SLE patients; SLE patient 19): 63%; Percent Inhibition of proliferation of PBL, Mean ± SD (PBL of SLE patients): 68.12 ± 9.57%; responders whose PBL proliferation was inhibited (inhibition above 50% considered positive) (PBL of SLE patients): 84.2%; activity of MMP-9 in pooled sera (MMP-9): down regulated
2 | YYCARGLLRGGWNDVDYYGMDV (Human) [hCDR3, peptide based on the CDR3 of the heavy chain of the human 16/6Id mAb] | inhibited efficiently | did inhibit efficiently | <50 | 75 | <50 | <50 | 87.5 | 80 | 70.4 | 56 | 65 | 71.8 | 72 | 86 | 64 | 74 | 69 | 68 | 77.8 | <50 | Percent Inhibition of proliferation of PBL (PBL of SLE patients; SLE patient 19): 60.8%; Percent Inhibition of proliferation of PBL, Mean ± SD (PBL of SLE patients): 71.82 ± 8.44%; responders whose PBL proliferation was inhibited (inhibition above 50% considered positive) (PBL of SLE patients): 78.9%
